# Reference: PubChem BioAssay (NCI)
#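 Compound exposure: 48 hours, 5 concentrations, 96-well plates. Abbreviation: GI50, concentration required for 50% inhibition of growth. TGI is the concentration that stops growth completely.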
# Legend:
# Test in all cases: growth of human tumour cells (NCI), 48 h
# TK-10 renal = system: TK-10 renal
# SK-MEL-28 melanoma = system: SK-MEL-28 melanoma
# SF-539 CNS = system: SF-539 CNS
# CAKI-1 renal = system: CAKI-1 renal
# HT29 colon = system: HT29 colon
# RPMI-8226 leukemia = system: RPMI-8226 leukemia
# HCT-116 colon = system: HCT-116 colon
# ACHN renal = system: ACHN renal
# MOLT-4 leukemia = system: MOLT-4 leukemia
SMILES,TGI (TK-10 renal),TGI (SK-MEL-28 melanoma),TGI (SF-539 CNS),TGI (CAKI-1 renal),TGI (HT29 colon),TGI (RPMI-8226 leukemia),TGI (HCT-116 colon),TGI (ACHN renal),GI50 (TK-10 renal),GI50 (SK-MEL-28 melanoma),GI50 (SF-539 CNS),GI50 (CAKI-1 renal),GI50 (HT29 colon),GI50 (RPMI-8226 leukemia),GI50 (MOLT-4 leukemia),TGI (MOLT-4 leukemia),GI50 (HCT-116 colon),GI50 (ACHN renal)
C/C(=N\N=C(N)N)C(CN1CCCCC1)C(c1ccccc1)c1c(O)c2ccccc2oc1=O (centres undefined),> 100 µM,> 100 µM,> 100 µM,> 100 µM,> 100 µM,> 100 µM,> 100 µM,> 100 µM,–,–,–,–,–,–,–,–,–,–
C=CN(C(=O)N1CCN(c2cc3c(cc2F)c(=O)c(C(=O)O)cn3C2CC2)CC1)c1nc(-c2ccc(OC)cc2)cs1,23.7 µM,> 100 µM,7.78 µM,18.3 µM,> 100 µM,> 100 µM,> 100 µM,> 100 µM,5.23 µM,4.26 µM,2.8 µM,2.84 µM,3.42 µM,2.75 µM,3.36 µM,> 100 µM,3.42 µM,3.77 µM
NC(=O)NNC(=O)CCn1[nH]c(=O)c(Cl)c(Cl)c1=O,> 100 µM,> 100 µM,–,> 100 µM,> 100 µM,–,> 100 µM,> 100 µM,–,–,–,–,–,–,–,–,–,–
CC(C)C[C@H](NC(=O)CNC(=O)c1cc(Cl)ccc1Cl)B(O)O,0.0517 µM,0.174 µM,0.0258 µM,0.0676 µM,0.0616 µM,0.0162 µM,0.659 µM,15.8 µM,< 0.0138 µM,< 0.0175 µM,< 0.0125 µM,< 0.0165 µM,< 0.0155 µM,< 0.01 µM,0.0187 µM,0.0797 µM,< 0.0131 µM,< 0.0182 µM
CC(C)(C)C1=CC(=C(P(=O)(O)O)P(=O)(O)O)C=C(C(C)(C)C)C1=O,> 50 µM,> 50 µM,> 50 µM,> 50 µM,> 50 µM,> 50 µM,> 50 µM,> 50 µM,–,–,–,–,–,–,–,> 50 µM,–,–
O=C(C(=O)c1cc2ccccc2[nH]1)c1cc2ccccc2[nH]1,> 347 µM,> 347 µM,> 347 µM,> 347 µM,> 347 µM,> 110 µM,> 347 µM,> 347 µM,–,–,–,–,–,–,–,> 347 µM,–,–
COC1CCC(OS(C)(=O)=O)C(CO)O1 (centres undefined),> 100 µM,> 100 µM,> 100 µM,–,> 100 µM,–,> 100 µM,> 100 µM,–,–,–,–,–,–,–,> 100 µM,–,–
C=C(c1ccc(OC)c(/C=C/C(=O)c2ccc3c(c2)OCO3)c1)c1cc(OC)c(OC)c(OC)c1,> 100 µM,–,7.24 µM,> 100 µM,10.4 µM,7.39 µM,–,–,4.79 µM,–,2.36 µM,3.02 µM,2.98 µM,1.56 µM,3.08 µM,> 100 µM,–,–
COc1ccc(Cc2c3cc(O)c(=O)cc-3ccn2C)cc1,> 100 µM,> 92.9 µM,70.4 µM,> 100 µM,> 100 µM,> 100 µM,> 100 µM,> 100 µM,–,–,–,–,–,–,–,> 81 µM,–,–
C=CCC1(CN(C)C)CC/C(=C\c2ccc(OC)cc2)C1=O (centres undefined),> 100 µM,> 100 µM,> 100 µM,–,> 100 µM,52.6 µM,> 100 µM,> 100 µM,–,–,–,–,–,–,–,> 100 µM,–,–
NNC(=O)C(=O)N/N=C(\CCCC(=O)Nc1ccc(Cl)cc1)CC(=O)c1ccc(F)cc1,> 100 µM,> 100 µM,–,–,> 100 µM,> 100 µM,> 100 µM,> 100 µM,–,–,–,–,–,–,–,> 100 µM,–,–
C=C(CCCCC)CN1CCCC1C(C)=O (centres undefined),> 100 µM,> 100 µM,> 100 µM,> 92.3 µM,> 100 µM,40 µM,> 80.9 µM,> 85.4 µM,–,–,–,–,–,–,–,33 µM,–,–
O=C(/C=C\c1ccccc1O)c1ccc(O)cc1O,> 100 µM,> 100 µM,> 100 µM,> 100 µM,> 100 µM,> 100 µM,> 100 µM,> 100 µM,–,–,–,–,–,–,–,> 100 µM,–,–
C=CCNC(=O)NCCCCC(NC(C)=O)C(=O)NCc1ccccc1 (centres undefined),> 100 µM,> 100 µM,> 100 µM,> 100 µM,> 100 µM,> 100 µM,–,> 100 µM,–,–,–,–,–,–,–,> 100 µM,–,–
CCC[C@H]1O[C@@H]2CC(=O)O[C@@H]2C2=C1C(=O)C=CC2=O,> 57.3 µM,31.5 µM,33.6 µM,34.1 µM,43.3 µM,74.6 µM,32.1 µM,25.7 µM,–,–,–,–,–,–,–,8.98 µM,–,–
CC1(C)OC2C(CCP(=O)(O)O)OC(c3nc(C(N)=O)cs3)C2O1 (centres undefined),> 100 µM,> 100 µM,–,> 100 µM,> 100 µM,> 100 µM,> 100 µM,> 100 µM,–,–,–,–,–,–,–,> 100 µM,–,–
